Test results reported in the supplement of paper PMC10307832.

Assays:
Assay in all cases: relative viability (nuclei count vs DMSO), 5 days (fraction); higher = more cells survive
IPA-3 + Decitabine = compound: C1=CC=C2C(=C1)C=CC(=C2SSC3=C(C=CC4=CC=CC=C43)O)O [IPA-3] + Nc1ncn([C@H]2C[C@H](O)[C@@H](CO)O2)c(=O)n1 [Decitabine] (partner 2 µM)
Procedure, shortened: (§1)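 Lung cancer cell lines in 1536-well plates got either a single drug or a fixed anchor-drug dose together with five library-drug doses (not always all listed) in √10 steps, by pin tool, on the day after seeding. Nuclei were counted after 5 days, and relative viability is the treated-to-vehicle ratio of nuclei counts. Values are medians of duplicate plates.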

IPA-3 + Linsitinib = compound: C1=CC=C2C(=C1)C=CC(=C2SSC3=C(C=CC4=CC=CC=C43)O)O [IPA-3] + C[C@]1(O)C[C@@H](c2nc(-c3ccc4ccc(-c5ccccc5)nc4c3)c3c(N)nccn32)C1 [Linsitinib] (partner 1 µM)
Procedure, shortened: as §1

RAF265 + Bortezomib = compound: Cn1c(Nc2ccc(C(F)(F)F)cc2)nc2cc(Oc3ccnc(-c4ncc(C(F)(F)F)[nH]4)c3)ccc21 [RAF265] + CC(C)C[C@H](NC(=O)[C@H](Cc1ccccc1)NC(=O)c1cnccn1)B(O)O [Bortezomib] (partner 0.002 µM)
Procedure, shortened: as §1

IPA-3 + Crizotinib = compound: C1=CC=C2C(=C1)C=CC(=C2SSC3=C(C=CC4=CC=CC=C43)O)O [IPA-3] + C[C@@H](Oc1cc(-c2cnn(C3CCNCC3)c2)cnc1N)c1c(Cl)ccc(F)c1Cl [Crizotinib] (partner 1 µM)
Procedure, shortened: as §1

Cell Line | relative viability (IPA-3 + Decitabine; first compound 0.2 µM) | relative viability (IPA-3 + Decitabine; first compound 0.6325 µM) | relative viability (IPA-3 + Decitabine; first compound 2 µM) | relative viability (IPA-3 + Decitabine; first compound 6.325 µM) | relative viability (IPA-3 + Decitabine; first compound 20 µM) | relative viability (IPA-3 + Linsitinib; first compound 0.2 µM) | relative viability (IPA-3 + Linsitinib; first compound 0.6325 µM) | relative viability (IPA-3 + Linsitinib; first compound 2 µM) | relative viability (IPA-3 + Linsitinib; first compound 6.325 µM) | relative viability (IPA-3 + Linsitinib; first compound 20 µM) | relative viability (RAF265 + Bortezomib; first compound 0.01 µM) | relative viability (RAF265 + Bortezomib; first compound 0.03162 µM) | relative viability (RAF265 + Bortezomib; first compound 0.1 µM) | relative viability (RAF265 + Bortezomib; first compound 0.3162 µM) | relative viability (RAF265 + Bortezomib; first compound 1 µM) | relative viability (IPA-3 + Crizotinib; first compound 0.2 µM) | relative viability (IPA-3 + Crizotinib; first compound 0.6325 µM) | relative viability (IPA-3 + Crizotinib; first compound 2 µM) | relative viability (IPA-3 + Crizotinib; first compound 6.325 µM) | relative viability (IPA-3 + Crizotinib; first compound 20 µM)
HARA | 0.474 | 0.517 | 0.544 | 0.578 | 0.621 | 1.08 | 0.912 | 0.935 | 0.916 | 1.02 | 1.12 | 1.1 | 1.1 | 0.809 | 0.801 | 1.21 | 1.22 | 1.09 | 1.14 | 1.24
HCC-15 | 0.754 | 0.572 | 0.612 | 0.61 | 0.629 | 0.934 | 0.81 | 0.951 | 0.888 | 0.918 | 0.95 | 0.96 | 0.985 | 0.941 | 0.792 | 0.812 | 0.855 | 0.825 | 0.776 | 0.886
HCC-44 | 0.951 | 0.943 | 0.879 | 0.924 | 0.846 | 0.772 | 0.588 | 0.708 | 0.632 | 0.686 | 0.862 | 0.818 | 0.9 | 0.957 | 0.873 | 0.859 | 0.735 | 0.917 | 0.804 | 0.807
IA-LM |  |  |  |  |  | 0.922 | 0.526 | 0.639 | 0.505 | 0.404 | 0.77 |  | 0.805 | 0.593 | 0.548 | 1.25 | 0.683 | 0.904 | 0.553 | 0.555
LK-2 | 0.297 | 0.333 | 0.32 | 0.442 | 0.346 | 0.553 | 0.436 | 0.595 | 0.526 | 0.518 |  |  |  |  |  | 0.202 | 0.229 | 0.227 | 0.22 | 0.193
NCI-H358 | 0.229 | 0.199 | 0.196 | 0.2 | 0.108 | 0.789 | 0.687 | 0.792 | 0.686 | 0.882 |  |  |  |  |  | 0.454 | 0.663 | 0.611 | 0.595 | 0.574
NCI-H522 | 0.703 | 0.642 | 0.534 | 0.689 | 0.765 |  |  |  |  |  |  |  |  |  |  |  |  |  |  | 
NCI-H1299 |  |  |  |  |  | 1.16 | 0.99 | 0.942 | 0.946 | 0.999 | 1.04 | 1.02 | 1.05 | 0.969 | 0.741 | 0.974 | 0.935 | 0.96 | 0.928 | 0.961
NCI-H1395 | 0.688 | 0.666 | 0.728 | 0.687 | 0.714 | 1.2 | 1.04 | 1.19 | 1.02 | 1.11 |  |  |  |  |  |  |  |  |  | 
NCI-H1563 |  |  |  |  |  | 1.31 | 1.24 | 1.32 | 1.34 | 1.3 | 0.994 | 0.836 | 0.851 | 0.69 | 0.803 | 0.899 | 0.891 | 0.938 | 1.11 | 1.02
NCI-H1648 | 0.529 | 0.465 | 0.4 | 0.59 | 0.525 |  |  |  |  |  |  |  |  |  |  |  |  |  |  | 
NCI-H1650 | 0.44 | 0.396 | 0.386 | 0.349 | 0.374 |  |  |  |  |  | 0.224 | 0.222 | 0.224 | 0.207 | 0.216 | 1.04 | 0.816 | 1.14 | 0.938 | 1.28
NCI-H1703 |  |  |  |  |  | 1.1 | 0.39 | 0.974 | 0.787 | 1.05 | 0.253 | 0.289 | 0.36 | 0.295 | 0.216 | 0.819 | 0.593 | 0.757 | 0.669 | 0.469
NCI-H1793 | 0.545 | 0.495 | 0.566 | 0.442 | 0.529 | 1.24 | 0.794 | 0.977 | 1.06 | 1.15 |  |  |  |  |  |  |  |  |  | 
NCI-H1944 | 0.468 | 0.41 | 0.456 | 0.481 | 0.412 | 1.2 | 1.12 | 1.23 | 1.48 | 1.3 |  |  |  |  |  | 1.21 | 0.995 | 1.11 | 1.17 | 1.07
NCI-H2170 | 0.462 | 0.421 | 0.424 | 0.445 | 0.439 |  |  |  |  |  |  |  |  |  |  | 1.24 | 1.11 | 1.18 | 1.16 | 1.33
NCI-H2228 |  |  |  |  |  | 0.706 | 0.857 | 0.642 | 0.715 | 0.887 | 0.968 | 0.82 | 0.887 | 0.412 | 0.42 | 0.437 | 0.383 | 0.439 | 0.376 | 0.597
NCI-H2342 | 0.772 | 0.75 | 0.737 | 0.798 | 0.839 |  |  |  |  |  |  |  |  |  |  |  |  |  |  | 
SK-MES-1 | 0.455 | 0.394 | 0.423 | 0.296 | 0.31 | 1.13 | 1.01 | 1.07 | 1.07 | 1.02 |  |  |  |  |  | 0.981 | 1 | 1.13 | 0.94 | 0.87
SW 900 | 0.501 | 0.453 | 0.49 | 0.415 | 0.476 |  |  |  |  |  |  |  |  |  |  |  |  |  |  | 
